Measured values as given in the CheMixHub viscosity set.
Values joined by “and” are separate entries in the source; they are usually repeats but may differ in a detail not shown here. Equal entries are not always repeated.

How the values were obtained:
[1] = xn = mol fraction of the nth substance listed

BrC(Br)Br
viscosity
Settings	298 K	298.15 K	303.15 K	308.15 K	313.15 K	318 K
101 kPa	–	–	1.843 mPa·s and 1.861 mPa·s	1.729 mPa·s and 1.746 mPa·s	1.623 mPa·s and 1.641 mPa·s	–
101.3 kPa	1.873 mPa·s	1.912 mPa·s	1.79 mPa·s	1.684 mPa·s	–	–
101.33 kPa	–	1.912 mPa·s and 1.977 mPa·s	1.79 mPa·s and 1.857 mPa·s	1.684 mPa·s and 1.733 mPa·s	–	1.476 mPa·s

BrC(Br)C(Br)Br
101 kPa
Settings	viscosity [mPa·s]
298.08 K	9.687
308.11 K	7.313
313.11 K	6.406

C=Cc1ccccc1
101 kPa
Settings	viscosity
298.15 K	1.07 mPa·s and 0.695 mPa·s
308.15 K	0.618 mPa·s
313.15 K	0.573 mPa·s

CC#N
Settings	viscosity
293.15 K, 101.32 kPa	0.3579 mPa·s
293.15 K, 101.33 kPa	0.408 mPa·s and 0.383 mPa·s
297.92 K, 101 kPa	0.3538 mPa·s
298.15 K, 100 kPa	0.3479 mPa·s and 0.3462 mPa·s and 0.338 mPa·s
298.15 K, 101.3 kPa	0.335 mPa·s and 0.346 mPa·s
298.15 K, 101.33 kPa	0.39 mPa·s and 0.361 mPa·s and 0.345 mPa·s
301.67 K, 101 kPa	0.3418 mPa·s
303 K, 100 kPa	0.3485 mPa·s
303.15 K, 100 kPa	0.3332 mPa·s and 0.3307 mPa·s
303.15 K, 101.3 kPa	0.326 mPa·s
303.15 K, 101.33 kPa	0.371 mPa·s and 0.333 mPa·s
303.61 K, 101 kPa	0.3353 mPa·s
305.61 K, 101 kPa	0.3294 mPa·s
308 K, 100 kPa	0.3285 mPa·s
308 K, 101 kPa	0.3205 mPa·s
308.15 K, 100 kPa	0.3196 mPa·s and 0.3165 mPa·s
308.15 K, 101.3 kPa	0.314 mPa·s and 0.306 mPa·s
308.15 K, 101.33 kPa	0.319 mPa·s
308.76 K, 101 kPa	0.3201 mPa·s
311.67 K, 101 kPa	0.3112 mPa·s
313 K, 100 kPa	0.3102 mPa·s
313.15 K, 100 kPa	0.3071 mPa·s and 0.298 mPa·s
313.15 K, 101.3 kPa	0.291 mPa·s
313.15 K, 101.32 kPa	0.2974 mPa·s
313.15 K, 101.33 kPa	0.337 mPa·s
318 K, 101 kPa	0.2908 mPa·s
323.15 K, 100 kPa	0.2849 mPa·s and 0.2624 mPa·s
323.15 K, 101.32 kPa	0.2729 mPa·s
323.15 K, 101.33 kPa	0.309 mPa·s

CC(=O)c1ccc(Cl)cc1
303.15 K
Settings	viscosity [mPa·s]
100 kPa	2.353
101 kPa	2.353

CC(C)(C)N
viscosity
Settings	298 K	298.15 K	303 K	303.15 K	308 K	308.15 K	313.15 K
101 kPa	0.434 mPa·s	0.4394 mPa·s and 0.439 mPa·s	0.403 mPa·s	0.4363 mPa·s and 0.4443 mPa·s	0.375 mPa·s	0.4126 mPa·s and 0.4126 mPa·s	–
101.33 kPa	–	0.4394 mPa·s	–	0.4088 mPa·s	–	0.3803 mPa·s	0.3558 mPa·s

CC12CC3CC(C1)CC(C)(C3)C2
100 kPa
Settings	viscosity
293.15 K	3.779 mPa·s and 3.778 mPa·s
298.15 K	3.371 mPa·s and 3.365 mPa·s
303.15 K	3.027 mPa·s and 3.017 mPa·s
308.15 K	2.747 mPa·s
313.15 K	2.475 mPa·s
318.15 K	2.262 mPa·s
323.15 K	2.05 mPa·s

CC1CCCC(O)C1 (stereo not given)
Settings	viscosity [mPa·s]
293.15 K, 101 kPa	22.8

CCC(C)(C)OC
100 kPa
Settings	viscosity [mPa·s]
293.15 K	0.439
303.15 K	0.415
313.15 K	0.369
323.15 K	0.335

CCCCCCCCO
viscosity
Settings	293.15 K	298 K	298.15 K	303.15 K	308 K	308.15 K	313 K	313.15 K	318.15 K	323.15 K
100 kPa	9.045 mPa·s and 9.2 mPa·s and 8.98 mPa·s	7.614 mPa·s	7.546 mPa·s and 7.67 mPa·s and 7.56 mPa·s	6.337 mPa·s and 6.35 mPa·s	–	–	–	4.564 mPa·s and 4.61 mPa·s and 4.585 mPa·s	–	3.365 mPa·s and 3.38 mPa·s
101 kPa	8.309 mPa·s and 9.185 mPa·s	–	7.33 mPa·s and 7.3 mPa·s	–	5.228 mPa·s	–	4.464 mPa·s	4.199 mPa·s and 4.691 mPa·s and 4.58 mPa·s	–	3.464 mPa·s and 3.369 mPa·s
101.3 kPa	9.273 mPa·s and 9.183 mPa·s	–	7.598 mPa·s and 7.84 mPa·s	6.102 mPa·s and 6.42 mPa·s	–	5.403 mPa·s	–	4.413 mPa·s and 4.661 mPa·s	4.051 mPa·s and 3.701 mPa·s	2.84 mPa·s
101.33 kPa	–	–	–	–	–	5.352 mPa·s	–	–	–	3.361 mPa·s and 3.361 mPa·s

CCn1cc[n+](C)c1.O=S(=O)([N-]S(=O)(=O)C(F)(F)F)C(F)(F)F
Settings	viscosity
293.15 K, 100 kPa	41.6 mPa·s and 39.2 mPa·s
297.55 K, 101 kPa	36.3 mPa·s
298 K, 100 kPa	29.67 mPa·s
298.15 K, 100 kPa	33.9 mPa·s and 32.55 mPa·s
298.15 K, 101 kPa	30.72 mPa·s and 32.3 mPa·s
298.15 K, 101.3 kPa	32.42 mPa·s
303 K, 100 kPa	24.82 mPa·s
303.15 K, 100 kPa	27.68 mPa·s and 27.4 mPa·s
303.15 K, 101.3 kPa	28.6 mPa·s
308 K, 100 kPa	20.99 mPa·s
308.15 K, 101.3 kPa	23.19 mPa·s
313 K, 100 kPa	17.97 mPa·s
313.15 K, 100 kPa	20.16 mPa·s and 19.1 mPa·s and 20.1 mPa·s
313.15 K, 101 kPa	19.9 mPa·s and 19.26 mPa·s
313.15 K, 101.3 kPa	19.94 mPa·s
318 K, 100 kPa	15.57 mPa·s
318.15 K, 101.3 kPa	17.37 mPa·s
323 K, 100 kPa	13.28 mPa·s
323.15 K, 100 kPa	15.34 mPa·s and 14.4 mPa·s and 15.3 mPa·s
323.15 K, 101.3 kPa	15.34 mPa·s

NCCOCCO
101.33 kPa
Settings	viscosity [mPa·s]
298.15 K	26.66
313.15 K	13.43
323.15 K	9.155

O=S(=O)([N-]S(=O)(=O)C(F)(F)F)C(F)(F)F.OCCNCCO.[Li+]
101 kPa
Settings	viscosity [mPa·s]
313.15 K	1775
318.15 K	1235
323.15 K	895

C=Cc1ccccc1 + c1ccccc1
viscosity [mPa·s], [1], 101 kPa
Settings	x2 = 0.1362	x2 = 0.2498	x2 = 0.3047	x2 = 0.4109	x2 = 0.5207	x2 = 0.5834	x2 = 0.7114	x2 = 0.7924	x2 = 0.8831
298.15 K	0.672	0.654	0.645	0.633	0.623	0.618	0.608	0.605	0.604
303.15 K	0.629	0.61	0.6	0.589	0.577	0.57	0.56	0.556	0.555
308.15 K	0.59	0.57	0.56	0.548	0.537	0.53	0.52	0.515	0.514
313.15 K	0.54	0.518	0.51	0.499	0.487	0.48	0.47	0.466	0.465

CC1CCCC(O)C1 (stereo not given) + c1ccccc1
[1], 293.15 K, 101 kPa
Settings	viscosity
x2 = 0.3	4.2 mPa·s
x2 = 0.5	2.1 mPa·s
x2 = 0.6	1.6 mPa·s
x2 = 0.7	1.5 mPa·s
x2 = 0.8	1.2 mPa·s and 1.1 mPa·s

CCC(C)(C)OC + c1ccccc1
viscosity [mPa·s], [1], 100 kPa
Settings	x1 = 0.051	x1 = 0.1986	x1 = 0.2998	x1 = 0.3995	x1 = 0.4992	x1 = 0.5905	x1 = 0.6974	x1 = 0.8012	x1 = 0.8948	x1 = 0.9496
293.15 K	0.623	0.579	0.553	0.53	0.51	0.493	0.475	0.46	0.451	0.445
303.15 K	0.547	0.513	0.493	0.475	0.461	0.449	0.436	0.427	0.422	0.418
313.15 K	0.478	0.447	0.43	0.414	0.402	0.392	0.381	0.375	0.372	0.37

CCCCCCCCO + c1ccccc1
viscosity [mPa·s], [1]
Settings	293.15 K	298.15 K	303.15 K	313.15 K	323.15 K
100 kPa, x2 = 0.0834	7.415	–	5.248	3.685	2.768
100 kPa, x2 = 0.1711	6.045	–	4.294	2.932	2.235
100 kPa, x2 = 0.2512	5.033	–	3.532	2.393	1.821
100 kPa, x2 = 0.3602	3.894	–	2.682	1.807	1.365
100 kPa, x2 = 0.4552	3.069	–	2.085	1.4	1.062
100 kPa, x2 = 0.5612	2.333	–	1.545	1.076	0.818
100 kPa, x2 = 0.6483	1.824	–	1.236	0.904	0.7
100 kPa, x2 = 0.7524	1.334	–	0.957	0.736	0.594
100 kPa, x2 = 0.8537	0.975	–	0.736	0.608	0.516
100 kPa, x2 = 0.9502	0.748	–	0.612	0.525	0.455
101.33 kPa, x1 = 0.2	–	0.863	–	–	0.57
